Experimental findings from US11773078B2, “Furin inhibitors” (Glaxosmithkline Intellectual Property Development Limited, priority 2018, dated 2023) are described below.

The target in assay [1] is T1, furin (endogenous protease) in U20S cells (Homo sapiens, UniProt P09958).
T1 construct: the endogenous protease cleaves GFP; endogenous in cells; host or cells: U2OS cells transduced with a BacMam reporter
Kind of assay: Furin cell-based assay (image-based, Golgi-targeted GFP with BMP10 furin/PCSK cleavage site).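 Note: Read-out is mean GFP fluorescence of Golgi puncta per cell by high-content imaging, retained when furin inhibited, over an eleven-point 0.00017–10 µM series, four-parameter fit.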 Conditions: 24-hour incubation, read-out: furin golgi cell pXC50 (converted).
Protocol: This assay uses an image-based platform to evaluate the intracellular activity of compounds of the invention. Reactions were performed in black 384-well, tissue culture-treated, clear bottom plates (Greiner). Compounds under analysis were dissolved in DMSO (1.0 mM) and serially diluted 1 to 3 with DMSO through eleven dilutions. This creates a final compound concentration range from 0.00017 to 10 μM, and 0.1 μL of each concentration was transferred to the corresponding well of the assay plate. Assays were initiated by the addition of U20S cells simultaneously transduced with a BacMam-delivered construct containing a Golgi-targeting sequence followed by a 12-amino acid furin/PCSK cleavage site from Bone Morphogenic Protein 10 (BMP10) and then GFP at the C terminus. […] Briefly, frozen cells are thawed in assay media (Dulbecco's Modified Eagles Medium Nutritional Mixture F-12 (Ham) without phenol red containing 5% FBS) and diluted to deliver 6000 cells/well (50 μL) to the plate using a Multidrop Combi (Thermo).
After a 24-hour incubation period at 37° C., the cells are stained with Cell Mask Deep Red, fixed in paraformaldehyde and the nuclei stained using Ho33342. The Golgi-targeted GFP forms bright punctate clusters within the cell. In the absence of a furin inhibitor, the endogenous protease cleaves GFP from its N-acetylgalactosaminyltransferase-2 Golgi tether, releasing GFP into the Golgi lumen where fluorescence is diluted below the threshold of assay sensitivity. […] Cellular GFP intensity is determined by image-based acquisition (Incell 2200, Perkin Elmer) at 40× magnification with 4 fields measured per well. Multi-scale tophat segmentation is used to identify the GFP-tagged puncta and to quantitate the average fluorescence of all puncta on a per cell basis. Cellular toxicity is determined in parallel.
Data were analyzed using AbaseXE 7.3, utilizing a four-parameter curve fit equation. The following values were used to define limits and/or constraints for each of the four parameters: • Minimum—limit −10 to 10 • Maximum—90 to 110 • Slope—limit 0.5 to 2.0 • pXC50 confidence interval—10
Raw counts obtained from the respective plate reader (Perkin Elmer) were captured for data analysis. Curves were generated using the equation: Y=A+[(B−A)/(1+(10^C/x)^D)] • where: A=minimum response • B=maximum response • C=log 10*XC50 • D=slope factor • x=log 10 compound concentration [M]
The results were recorded as pXC50 values (−C in the above equation)

In assay [2] the target is T2, Furin (108-574-Tev-Flag-His) enzyme (Homo sapiens, UniProt P09958).
T2 construct: Furin (108-574-Tev-Flag-His) enzyme was expressed and purified from CHO cells; TEV cleavage site (C); FLAG (C); His (C); made in house; host or cells: CHO cells
T2 sequence (P09958 108-574): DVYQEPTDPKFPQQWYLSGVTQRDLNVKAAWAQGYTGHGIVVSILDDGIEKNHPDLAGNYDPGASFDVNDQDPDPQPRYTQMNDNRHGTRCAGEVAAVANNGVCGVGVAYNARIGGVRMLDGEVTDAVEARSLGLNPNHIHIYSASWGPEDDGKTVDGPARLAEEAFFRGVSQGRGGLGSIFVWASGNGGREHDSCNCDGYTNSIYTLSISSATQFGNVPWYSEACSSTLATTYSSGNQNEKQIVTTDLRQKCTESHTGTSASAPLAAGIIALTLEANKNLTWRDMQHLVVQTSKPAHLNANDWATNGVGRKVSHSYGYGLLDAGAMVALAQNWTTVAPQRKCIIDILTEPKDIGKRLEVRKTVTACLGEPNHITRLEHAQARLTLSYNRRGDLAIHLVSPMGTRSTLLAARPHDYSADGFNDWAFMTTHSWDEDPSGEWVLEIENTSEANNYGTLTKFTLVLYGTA
Kind of assay: Furin enzyme assay. Conditions: for IC50: read-out: furin enzyme pIC50 (converted). The class given is biochemical. A digest of the protocol:
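CHO-expressed, purified furin construct at 40 pM in 100 mM HEPES pH7.5, 1 mM CaCl2, 0.005% Triton X-100. Eleven-point 1:3 series, 0.00017–10 μM final, incubated 2 h at room temperature and read on Envision. pXC50 from four-parameter fit.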

T1 sequence (P09958 108-794): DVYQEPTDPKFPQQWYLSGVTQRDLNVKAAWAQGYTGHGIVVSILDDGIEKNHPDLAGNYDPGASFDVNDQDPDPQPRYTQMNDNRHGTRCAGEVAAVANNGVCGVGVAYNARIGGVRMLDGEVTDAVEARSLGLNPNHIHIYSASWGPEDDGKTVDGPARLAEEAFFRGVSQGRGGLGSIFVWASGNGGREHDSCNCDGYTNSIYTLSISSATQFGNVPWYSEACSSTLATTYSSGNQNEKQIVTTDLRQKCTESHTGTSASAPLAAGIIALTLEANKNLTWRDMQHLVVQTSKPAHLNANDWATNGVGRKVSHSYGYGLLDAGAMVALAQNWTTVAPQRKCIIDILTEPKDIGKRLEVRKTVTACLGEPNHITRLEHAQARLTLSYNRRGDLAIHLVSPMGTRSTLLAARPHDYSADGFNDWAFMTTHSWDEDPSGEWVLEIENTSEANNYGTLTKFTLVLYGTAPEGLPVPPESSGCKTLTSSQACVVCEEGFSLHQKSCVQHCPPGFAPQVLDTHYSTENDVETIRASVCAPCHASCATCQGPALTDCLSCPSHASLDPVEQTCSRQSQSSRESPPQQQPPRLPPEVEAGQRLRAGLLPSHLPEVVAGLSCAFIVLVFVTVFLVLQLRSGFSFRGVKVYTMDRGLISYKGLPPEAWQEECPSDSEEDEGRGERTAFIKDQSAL

In the case of `CC(CC1CCN(Cc2cc(Oc3ccc(N4CCN(C)CC4)nc3)nc(-c3cc(Cl)cc(Cl)c3)c2)CC1)C(=O)O` (stereo not drawn) [Example 213, 3-(1-((2-(3,5-dichlorophenyl)-6-((6-(4-methylpiperazin-1-yl)pyridin-3-yl)oxy)pyridin-4-yl)methyl)piperidin-4-yl)-2-methylpropanoic acid], in assay [1], the EC50 was 25.1 nM. In assay [2], the “furin enzyme pIC50” value came to 8.9.

For the compound `CC(=O)NCC1CCN(Cc2cc(Oc3cnc(N4CCN(CCC(C)S(C)(=O)=O)CC4)nc3)nc(-c3cc(Cl)cc(Cl)c3)c2)CC1` (stereo not drawn) [Example 214, N-((1-((2-(3,5-dichlorophenyl)-6-((2-(4-(3-(methylsulfonyl)butyl)piperazin-1-yl)pyrimidin-5-yl)oxy)pyridin-4-yl)methyl)piperidin-4-yl)methyl)acetamide], in assay [1], the EC50 is 2.51 nM. In addition, the “furin enzyme pIC50” value in assay [2] was found to be 9.1.

For the compound `CC(=O)NCC1CCN(Cc2cc(Oc3cnc(N4CCN(C(C)CCC(=O)O)CC4)nc3)nc(-c3cc(Cl)cc(Cl)c3)c2)CC1` (stereo not drawn) [Example 215, 4-(4-(5-((4-((4-(acetamidomethyl)piperidin-1-yl)methyl)-6-(3,5-dichlorophenyl)pyridin-2-yl)oxy)pyrimidin-2-yl)piperazin-1-yl)pentanoic acid], the EC50 in assay [1] is 10 nM. Also, the IC50 in assay [2] was 0.398 nM.

With `CC(=O)NCC1CCN(Cc2cc(Oc3cnc(N4CCN(C5CC(C(=O)O)C5)CC4)nc3)nc(-c3cc(Cl)cc(Cl)c3)c2)CC1` (stereo not drawn) [Example 216, 3-(4-(5-((4-((4-(acetamidomethyl)piperidin-1-yl)methyl)-6-(3,5-dichlorophenyl)pyridin-2-yl)oxy)pyrimidin-2-yl)piperazin-1-yl)cyclobutanecarboxylic acid], the EC50 in assay [1] is 15.8 nM. In addition, in assay [2], the “furin enzyme pIC50” value turned out to be 10.2.

Consider `COC(=O)NCC1CCN(Cc2cc(Oc3ccc(N4CCN(CCCS(C)(=O)=O)CC4)nc3)nc(-c3cc(Cl)cc(Cl)c3)c2)CC1` [Example 217, methyl ((1-((2-(3,5-dichlorophenyl)-6-((6-(4-(3-(methylsulfonyl)propyl)piperazin-1-yl)pyridin-3-yl)oxy)pyridin-4-yl)methyl)piperidin-4-yl)methyl)carbamate], for which the EC50 in assay [1] is 5.01 nM. In addition, the “furin enzyme pIC50” value in assay [2] came to 9.8.

With `CC(=O)NCC1CCN(Cc2cc(Oc3ccc(N4CCN(CCC(C)S(C)(=O)=O)CC4)nc3)nc(-c3cc(Cl)cc(Cl)c3)c2)CC1` (stereo not drawn) [Example 218, N-((1-((2-(3,5-dichlorophenyl)-6-((6-(4-(3-(methylsulfonyl)butyl)piperazin-1-yl)pyridin-3-yl)oxy)pyridin-4-yl)methyl)piperidin-4-yl)methyl)acetamide], in assay [1], the EC50 is 2 nM. For the same compound, the “furin enzyme pIC50” value in assay [2] is recorded as 10.1.

In the case of `CNC(=O)NCC1CCN(Cc2cc(Oc3ccc(N4CCN(CCC(C)S(C)(=O)=O)CC4)nc3)nc(-c3cc(Cl)cc(Cl)c3)c2)CC1` (stereo not drawn) [Example 219, 1-((1-((2-(3,5-dichlorophenyl)-6-((6-(4-(3-(methylsulfonyl)butyl)piperazin-1-yl)pyridin-3-yl)oxy)pyridin-4-yl)methyl)piperidin-4-yl)methyl)-3-methylurea], the EC50 in assay [1] was 0.398 nM. Also, the “furin enzyme pIC50” value in assay [2] is 9.8.

Take `CNC(=O)NCC1CCN(Cc2cc(Oc3cnc(N4CCN(CCC(C)S(C)(=O)=O)CC4)nc3)nc(-c3cc(Cl)cc(Cl)c3)c2)CC1` (stereo not drawn) [Example 220, 1-((1-((2-(3,5-dichlorophenyl)-6-((2-(4-(3-(methylsulfonyl)butyl)piperazin-1-yl)pyrimidin-5-yl)oxy)pyridin-4-yl)methyl)piperidin-4-yl)methyl)-3-methylurea]: in assay [1], the EC50 is 2.51 nM. In assay [2], the IC50 is 0.0631 nM.

As to `CNC(=O)NCC1CCN(Cc2cc(Oc3cnc(N4CCN(C5CC(C(=O)O)C5)CC4)nc3)nc(-c3cc(Cl)cc(Cl)c3)c2)CC1` (stereo not drawn) [Example 221, 3-(4-(5-((6-(3,5-dichlorophenyl)-4-((4-((3-methylureido)methyl)piperidin-1-yl)methyl)pyridin-2-yl)oxy)pyrimidin-2-yl)piperazin-1-yl)cyclobutanecarboxylic acid], in assay [1], the EC50 is 5.01 nM. Also, the “furin enzyme pIC50” value in assay [2] is 10.4.

In the case of `COC(=O)NCC1CCN(Cc2cc(Oc3cnc(N4CCN(C(C)CCC(=O)O)CC4)nc3)nc(-c3cc(Cl)cc(Cl)c3)c2)CC1` (stereo not drawn) [Example 222, 4-(4-(5-((6-(3,5-dichlorophenyl)-4-((4-(((methoxycarbonyl)amino)methyl)piperidin-1-yl)methyl)pyridin-2-yl)oxy)pyrimidin-2-yl)piperazin-1-yl)pentanoic acid], the EC50 in assay [1] is 25.1 nM. In addition, the “furin enzyme pIC50” value in assay [2] came out at 10.2.

As for `COC(=O)NCC1CCN(Cc2cc(Oc3cnc(N4CCN(CCCS(C)(=O)=O)CC4)nc3)nc(-c3cc(Cl)cc(Cl)c3)c2)CC1` [Example 223, methyl ((1-((2-(3,5-dichlorophenyl)-6-((2-(4-(3-(methylsulfonyl)propyl)piperazin-1-yl)pyrimidin-5-yl)oxy)pyridin-4-yl)methyl)piperidin-4-yl)methyl)carbamate], the EC50 in assay [1] was 5.01 nM. For the same compound, the “furin enzyme pIC50” value in assay [2] stood at 9.8.

In the case of `CN1CCN(c2ncc(Oc3cc(CN4CC[C@@H]5[C@H](CC4)[C@H]5CC(=O)O)cc(-c4cc(Cl)cc(Cl)c4)n3)cn2)CC1` [Example 224, 2-((1R,7S,8r)-4-((2-(3,5-dichlorophenyl)-6-((2-(4-methylpiperazin-1-yl)pyrimidin-5-yl)oxy)pyridin-4-yl)methyl)-4-azabicyclo[5.1.0]octan-8-yl)acetic acid], in assay [1], the EC50 is 7.94 nM. Moreover, the “furin enzyme pIC50” value in assay [2] is listed as 8.7.

`CN1CCN(c2ncc(Oc3cc(CN4CCC(OC(C)(C)C(=O)O)CC4)cc(-c4cc(Cl)cc(Cl)c4)n3)cn2)CC1` [Example 225, 2-((1-((2-(3,5-dichlorophenyl)-6-((2-(4-methylpiperazin-1-yl)pyrimidin-5-yl)oxy)pyridin-4-yl)methyl)piperidin-4-yl)oxy)-2-methylpropanoic acid]: the EC50 in assay [1] is 10 nM. For the same compound, the “furin enzyme pIC50” value in assay [2] is 8.5.

Regarding `CN1CCN(c2ncc(Oc3cc(CN4CCC(CC(=O)O)CC4)cc(-c4cc(Cl)cc(Cl)c4)n3)cn2)CC(O)C1` (stereo not drawn) [Example 226, 2-(1-((2-(3,5-dichlorophenyl)-6-((2-(6-hydroxy-4-methyl-1,4-diazepan-1-yl)pyrimidin-5-yl)oxy)pyridin-4-yl)methyl)piperidin-4-yl)acetic acid], the EC50 in assay [1] was 15.8 nM. Further, the IC50 in assay [2] is 2.51 nM.

For the compound `CN(C)C1CCN(c2ncc(Oc3cc(CN4CCC(CC(=O)O)CC4)cc(-c4cc(Cl)cc(Cl)c4)n3)cn2)CC1` [Example 227, 2-(1-((2-(3,5-dichlorophenyl)-6-((2-(4-(dimethylamino)piperidin-1-yl)pyrimidin-5-yl)oxy)pyridin-4-yl)methyl)piperidin-4-yl)acetic acid], the EC50 in assay [1] was 39.8 nM. In addition, in assay [2], the “furin enzyme pIC50” value is 8.7.

In the case of `CN1C2CC1CN(c1ncc(Oc3cc(CN4CCC(CC(=O)O)CC4)cc(-c4cc(Cl)cc(Cl)c4)n3)cn1)C2` [Example 228, 2-(1-((2-(3,5-dichlorophenyl)-6-((2-(6-methyl-3,6-diazabicyclo[3.1.1]heptan-3-yl)pyrimidin-5-yl)oxy)pyridin-4-yl)methyl)piperidin-4-yl)acetic acid], the EC50 in assay [1] was 39.8 nM. In assay [2], the “furin enzyme pIC50” value is listed as 8.6.

With `O=C(O)CC1CCN(Cc2cc(Oc3cnc(N4CCN(CC5(O)CC5)CC4)nc3)nc(-c3cc(Cl)cc(Cl)c3)c2)CC1` [Example 229, 2-(1-((2-(3,5-dichlorophenyl)-6-((2-(4-((1-hydroxycyclopropyl)methyl)piperazin-1-yl)pyrimidin-5-yl)oxy)pyridin-4-yl)methyl)piperidin-4-yl)acetic acid], the EC50 in assay [1] was 20 nM. For the same compound, the “furin enzyme pIC50” value in assay [2] is 8.6.

Regarding `CCN1CCCN(c2ncc(Oc3cc(CN4CCC(CC(=O)O)CC4)cc(-c4cc(Cl)cc(Cl)c4)n3)cn2)CC1` [Example 230, 2-(1-((2-(3,5-dichlorophenyl)-6-((2-(4-ethyl-1,4-diazepan-1-yl)pyrimidin-5-yl)oxy)pyridin-4-yl)methyl)piperidin-4-yl)acetic acid], the EC50 in assay [1] was 10 nM. Besides, in assay [2], the “furin enzyme pIC50” value was found to be 8.6.

On to `CN1C[C@@H]2C[C@H]1CN2c1ncc(Oc2cc(CN3CCC(CC(=O)O)CC3)cc(-c3cc(Cl)cc(Cl)c3)n2)cn1` [Example 231, 2-(1-((2-(3,5-dichlorophenyl)-6-((2-((1S,4S)-5-methyl-2,5-diazabicyclo[2.2.1]heptan-2-yl)pyrimidin-5-yl)oxy)pyridin-4-yl)methyl)piperidin-4-yl)acetic acid], for which, in assay [1], the EC50 is 10 nM. In addition, the “furin enzyme pIC50” value in assay [2] is 8.5.

As to `CCN1C[C@@H]2C[C@H]1CN2c1ncc(Oc2cc(CN3CCC(CC(=O)O)CC3)cc(-c3cc(Cl)cc(Cl)c3)n2)cn1` [Example 232, 2-(1-((2-(3,5-dichlorophenyl)-6-((2-((1S,4S)-5-ethyl-2,5-diazabicyclo[2.2.1]heptan-2-yl)pyrimidin-5-yl)oxy)pyridin-4-yl)methyl)piperidin-4-yl)acetic acid], the EC50 in assay [1] is 50.1 nM. Also, in assay [2], the “furin enzyme pIC50” value stood at 8.9.

For `O=C(O)CC1CCN(Cc2cc(Oc3cnc(N4CCN(C5CC5)CC4)nc3)nc(-c3cc(Cl)cc(Cl)c3)c2)CC1` [Example 233, 2-(1-((2-((2-(4-cyclopropylpiperazin-1-yl)pyrimidin-5-yl)oxy)-6-(3,5-dichlorophenyl)pyridin-4-yl)methyl)piperidin-4-yl)acetic acid], the EC50 in assay [1] is 100 nM. In assay [2], the “furin enzyme pIC50” value turned out to be 8.2.
